The results in this text go back to patent publication US20230077362A1 (CORTEVA AGRISCIENCE LLC, priority 2019, published 2023).

Type in all cases: in vivo
Test [1] relates to Cabbage Looper (Trichoplusia ni) ("CL"), second instar larvae. Description: Bioassay on cabbage looper (CL), 128-well diet tray assay. Particulars: Trichoplusia ni. Put shortly: (§1)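 Second-instar larvae on diet in 128-well trays, covered and held at 25° C, 14:10 light-dark, for five to seven days. Percent mortality scored per well and averaged over eight wells; activity reported as a rating category.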

The subject of test [2] is Beet Armyworm (Spodoptera exigua) ("BAW"), second instar larvae. Put plainly: Bioassay on beet armyworm (BAW), 128-well diet tray assay. Particulars: Spodoptera exigua. Put shortly: as §1
Test [3] deals with Yellow Fever Mosquito "YFM" (Aedes aegypti), about 1 day-old larvae. Description: Bioassay on yellow fever mosquito (YFM), 96-well plate larval assay. Particulars: for YFM rating: Table ABC, species YFM, mortality scored after 3 days, C = not tested, D = no activity noticed. How it is done:
Example C: Bioassays on Yellow Fever Mosquito “YFM” (Aedes aegypti)
Certain molecules disclosed in this document were tested against YFM using procedures described in the following paragraph. In the reporting of the results, the “YFM Rating Table” was used (See Table Section).
Master plates containing 400 μg of a molecule dissolved in 100 μL of dimethyl sulfoxide (DMSO) (equivalent to a 4000 ppm solution) are used. A master plate of assembled molecules contains 15 μL per well. To this plate, 135 μL of a 90:10 water:acetone mixture is added to each well. A robot (Biomek® NXP Laboratory Automation Workstation) is programmed to dispense 15 μL aspirations from the master plate into an empty 96-well shallow plate (“daughter” plate). There are 6 reps (“daughter” plates) created per master. The created daughter plates are then immediately infested with YFM larvae.
The day before plates are to be treated, mosquito eggs are placed in Millipore water containing liver powder to begin hatching (4 g. into 400 mL). After the daughter plates are created using the robot, they are infested with 220 μL of the liver powder/larval mosquito mixture (about 1 day-old larvae). After plates are infested with mosquito larvae, a non-evaporative lid is used to cover the plate to reduce drying. Plates are held at room temperature for 3 days prior to grading. After 3 days, each well is observed and scored based on mortality.

The test system of test [4] is Green Peach Aphid ("GPA") (Myzus persicae), wingless adult and nymph stages. Put plainly: Bioassay on green peach aphid (GPA), foliar spray on infested cabbage seedlings. The note with it: Myzus persicae, foliar, 72 h, read-out: GPA rating. In short, it runs like this:
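Values are corrected % control, 100*(X−Y)/X, from live aphid counts per plant under a microscope, treated versus solvent-check plants. Four infested seedlings (20-50 GPA each) per treatment were sprayed to runoff and kept three days near 25° C at ambient RH.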

Read-outs that look alike come from different tables or passages of the source.

Regarding `Cc1ccc([N+](=O)[O-])c(N2C(=O)CS/C2=N\C(=O)Nc2ccc(-c3ncn(-c4ccc(OC(F)(F)F)cc4)n3)cc2)c1` [Compound J313, (Z)-1-(3-(5-Methyl-2-nitrophenyl)-4-oxothiazolidin-2-ylidene)-3-(4-(1-(4-(trifluoromethoxy)phenyl)-1H-1,2,4-triazol-3-yl)phenyl)urea], the pest or weed control at 50 µg/cm2 in test [1] (read-out: CL (Biological Results, rating)) was 50 to 100%; in test [2] (read-out: BAW (Biological Results, rating)), 50 to 100%. For the same compound, the “YFM (Biological Results, rating)” value in test [3] (Yellow Fever Mosquito (Aedes aegypti) larvae, scored on mortality after 3 days, C = Not Tested) is “B (More than 0-Less than 80)”.
Take `Cc1ccc(COCc2ccccc2Cl)c(N2C(=O)CS/C2=N\C(=O)Nc2ccc(-c3ncn(-c4ccc(OC(F)(F)F)cc4)n3)cc2F)c1` [Compound J572, (Z)-1-(3-(2-(((2-Chlorobenzyl)oxy)methyl)-5-methylphenyl)-4-oxothiazolidin-2-ylidene)-3-(2-fluoro-4-(1-(4-(trifluoromethoxy)phenyl)-1H-1,2,4-triazol-3-yl)phenyl)urea]: the pest or weed control at 50 µg/cm2 in test [1] (read-out: CL rating) and in test [2] (read-out: BAW rating) was 50 to 100% throughout. Besides, the YFM rating entry in test [3] is given as “A (80-100)”.
For the compound `COC(C)c1ccc(C#N)cc1N1C(=O)CS/C1=N\C(=O)Nc1ccc(-c2cn(-c3ccc(S(=O)(=O)C(F)(F)F)cc3)cn2)cc1F` (stereo not shown) [Compound J652, (Z)-1-(3-(5-Cyano-2-(1-methoxyethyl)phenyl)-4-oxothiazolidin-2-ylidene)-3-(2-fluoro-4-(1-(4-((trifluoromethyl)sulfonyl)phenyl)-1H-imidazol-4-yl)phenyl)urea], the pest or weed control at 50 µg/cm2 in test [1] (read-out: CL rating) and in test [2] (read-out: BAW rating) was 50 to 100% each time. Also, in test [4], the pest or weed control at 200 µg/mL was in the range of 0 to 80%.
As for `O=C(/N=C1\SCC(=O)N1c1ccccc1COCC(F)(F)F)Nc1ccc(-c2ncn(-c3ccc(OC(F)(F)F)cc3)n2)cc1F` [Compound J659, (Z)-1-(2-Fluoro-4-(1-(4-(trifluoromethoxy)phenyl)-1H-1,2,4-triazol-3-yl)phenyl)-3-(4-oxo-3-(2-((2,2,2-trifluoroethoxy)methyl)phenyl)thiazolidin-2-ylidene)urea], the pest or weed control at 50 µg/cm2 in test [1] (read-out: CL rating) and in test [2] (read-out: BAW rating) was 50 to 100% throughout. Also, the pest or weed control at 200 µg/mL in test [4] lay in the range of 0 to 80%.
Take `CCOCc1ccc(C)cc1N1C(=O)CS/C1=N\C(=O)Nc1ccc(-c2ncn(-c3ccc(OC(F)(F)C(F)(F)F)cc3)n2)cc1F` [Compound J663, (Z)-1-(3-(2-(Ethoxymethyl)-5-methylphenyl)-4-oxothiazolidin-2-ylidene)-3-(2-fluoro-4-(1-(4-(perfluoroethoxy)phenyl)-1H-1,2,4-triazol-3-yl)phenyl)urea]: the pest or weed control at 50 µg/cm2 in test [1] (read-out: CL rating) and in test [2] (read-out: BAW rating) was 50 to 100% in each case. In addition, the pest or weed control at 200 µg/mL in test [4] was in the range of 0 to 80%.
As to `Cc1ccc(Cc2ccc(F)cc2)c(N2C(=O)CS/C2=N\C(=O)Nc2ccc(-c3ncn(-c4ccc(C(F)(F)F)cc4)n3)cc2F)c1` [Compound J673, (Z)-1-(2-Fluoro-4-(1-(4-(trifluoromethyl)phenyl)-1H-1,2,4-triazol-3-yl)phenyl)-3-(3-(2-(4-fluorobenzyl)-5-methylphenyl)-4-oxothiazolidin-2-ylidene)urea], the pest or weed control at 50 µg/cm2 in test [1] (read-out: CL rating) and in test [2] (read-out: BAW rating) was 50 to 100% throughout. Besides, in test [3], the YFM rating result is “A (80-100)”.
With `Cc1ccc(Cc2cccc(F)c2)c(N2C(=O)CS/C2=N\C(=O)Nc2ccc(-c3ncn(-c4ccc(C(F)(F)F)cc4)n3)cc2F)c1` [Compound J675, (Z)-1-(2-Fluoro-4-(1-(4-(trifluoromethyl)phenyl)-1H-1,2,4-triazol-3-yl)phenyl)-3-(3-(2-(3-fluorobenzyl)-5-methylphenyl)-4-oxothiazolidin-2-ylidene)urea], the pest or weed control at 50 µg/cm2 in test [1] (read-out: CL rating) and in test [2] (read-out: BAW rating) was 50 to 100% each time. For the same compound, in test [3], the YFM rating result is “A (80-100)”.
Consider `Cc1ccc(COCC(F)(F)F)c(N2C(=O)CS/C2=N\C(=O)Nc2ccc(-c3ncn(-c4ccc(C(F)F)cc4)n3)cc2C)c1` [Compound J684, (Z)-1-(4-(1-(4-(Difluoromethyl)phenyl)-1H-1,2,4-triazol-3-yl)-2-methylphenyl)-3-(3-(5-methyl-2-((2,2,2-trifluoroethoxy)methyl)phenyl)-4-oxothiazolidin-2-ylidene)urea], for which the pest or weed control at 50 µg/cm2 in test [1] (read-out: CL rating) and in test [2] (read-out: BAW rating) was 50 to 100% in each case. In test [4], the pest or weed control at 200 µg/mL lay in the range of 0 to 80%.
As to `Cc1ccc(COCC(F)(F)F)c(N2C(=O)CS/C2=N\C(=O)Nc2ccc(-c3ncn(-c4ccc(C(F)F)cc4)n3)cc2F)c1` [Compound J686, (Z)-1-(4-(1-(4-(Difluoromethyl)phenyl)-1H-1,2,4-triazol-3-yl)-2-fluorophenyl)-3-(3-(5-methyl-2-((2,2,2-trifluoroethoxy)methyl)phenyl)-4-oxothiazolidin-2-ylidene)urea], the pest or weed control at 50 µg/cm2 in test [1] (read-out: CL rating) and in test [2] (read-out: BAW rating) was 50 to 100% in each case. Besides, the pest or weed control at 200 µg/mL in test [4] was 0 to 80%.
For `Cc1ccc(Cc2ccccc2F)c(N2C(=O)CS/C2=N\C(=O)Nc2ccc(-c3ncn(-c4ccc(C(F)(F)F)cc4)n3)cc2F)c1` [Compound J708, (Z)-1-(2-Fluoro-4-(1-(4-(trifluoromethyl)phenyl)-1H-1,2,4-triazol-3-yl)phenyl)-3-(3-(2-(2-fluorobenzyl)-5-methylphenyl)-4-oxothiazolidin-2-ylidene)urea], the pest or weed control at 50 µg/cm2 in test [1] (read-out: CL rating) and in test [2] (read-out: BAW rating) was 50 to 100% in each case. In addition, the YFM rating entry in test [3] is on record as “A (80-100)”.
`Cc1ccc(COCc2cc3c(C(F)(F)F)nn(C)c3s2)c(N2C(=O)CS/C2=N\C(=O)Nc2ccc(-c3ncn(-c4ccc(OC(F)(F)F)cc4)n3)cc2F)c1` [Compound J712, (Z)-1-(2-Fluoro-4-(1-(4-(trifluoromethoxy)phenyl)-1H-1,2,4-triazol-3-yl)phenyl)-3-(3-(5-methyl-2-(((1-methyl-3-(trifluoromethyl)-1H-thieno[2,3-c]pyrazol-5-yl)methoxy)methyl)phenyl)-4-oxothiazolidin-2-ylidene)urea]: the pest or weed control at 50 µg/cm2 in test [1] (read-out: CL rating) and in test [2] (read-out: BAW rating) was 50 to 100% throughout. Further, in test [3], the YFM rating entry is “A (80-100)”.
As to `Cc1cc(N2C(=O)CS/C2=N\C(=O)Nc2ccc(-c3ncn(-c4ccc(OC(F)(F)F)cc4)n3)cc2F)c(C)cc1F` [Compound J714, (Z)-1-(3-(4-Fluoro-2,5-dimethylphenyl)-4-oxothiazolidin-2-ylidene)-3-(2-fluoro-4-(1-(4-(trifluoromethoxy)phenyl)-1H-1,2,4-triazol-3-yl)phenyl)urea], the pest or weed control at 50 µg/cm2 in test [1] (read-out: CL rating) and in test [2] (read-out: BAW rating) was 50 to 100% each time. Moreover, the YFM rating entry in test [3] is on record as “A (80-100)”.
For the compound `O=C(/N=C1\SCC(=O)N1c1ccccc1-c1ccccc1)Nc1ccc(-c2ncn(-c3ccc(OC(F)(F)F)cc3)n2)cc1F` [Compound J720, (Z)-1-(3-([1,1′-Biphenyl]-2-yl)-4-oxothiazolidin-2-ylidene)-3-(2-fluoro-4-(1-(4-(trifluoromethoxy)phenyl)-1H-1,2,4-triazol-3-yl)phenyl)urea], the pest or weed control at 50 µg/cm2 in test [1] (read-out: CL rating) and in test [2] (read-out: BAW rating) was 50 to 100% throughout. Besides, in test [3], the YFM rating entry is “A (80-100)”.
Consider `O=C(/N=C1\SCC(=O)N1c1cc(C(F)(F)F)ccc1COCc1ccccc1)Nc1ccc(-c2ncn(-c3ccc(OC(F)(F)F)cc3)n2)cc1F` [Compound J741, (Z)-1-(3-(2-((Benzyloxy)methyl)-5-(trifluoromethyl)phenyl)-4-oxothiazolidin-2-ylidene)-3-(2-fluoro-4-(1-(4-(trifluoromethoxy)phenyl)-1H-1,2,4-triazol-3-yl)phenyl)urea], for which, in test [3], the YFM rating result is “A (80-100)”.
On to `Cc1ccc(COCc2ccccc2OC(F)(F)F)c(N2C(=O)CS/C2=N\C(=O)Nc2ccc(-c3ncn(-c4ccc(C(F)(F)F)cc4)n3)cc2F)c1` [Compound J746, (Z)-1-(2-Fluoro-4-(1-(4-(trifluoromethyl)phenyl)-1H-1,2,4-triazol-3-yl)phenyl)-3-(3-(5-methyl-2-(((2-(trifluoromethoxy)benzyl)oxy)methyl)phenyl)-4-oxothiazolidin-2-ylidene)urea], for which the pest or weed control at 50 µg/cm2 in test [2] (read-out: BAW rating) lay within 50 to 100%. Besides, the YFM rating entry in test [3] is listed as “A (80-100)”.
As for `Cc1ccc(COCc2cc(C(F)(F)F)cc(C(F)(F)F)c2)c(N2C(=O)CS/C2=N\C(=O)Nc2ccc(-c3ncn(-c4ccc(C(F)(F)F)cc4)n3)cc2F)c1` [Compound J748, (Z)-1-(3-(2-(((3,5-Bis(trifluoromethyl)benzyl)oxy)methyl)-5-methylphenyl)-4-oxothiazolidin-2-ylidene)-3-(2-fluoro-4-(1-(4-(trifluoromethyl)phenyl)-1H-1,2,4-triazol-3-yl)phenyl)urea], the YFM rating entry in test [3] is given as “A (80-100)”.
